# According to US10391071B2, “Compositions comprising valerian extracts” (Cutech SRL, priority 2015, dated 2019):
# Assays:
# [1] = test system: human skin subcutis; assay: Normalized total lipids in subcutis of ex-vivo cultured full-thickness human skin; type: cell-based; conditions: for Total lipid content in skin subcutis samples, % ratio of the control group performance (Average): Table 9, abdominal skin, six days of organ culture (five of treatment)
# Description: The reported examples from 19 to 23 are intended to show the modulation of adipocyte lipid content exerted by the experimental preparations on human skin subcutis. Full-thickness ex-vivo human skin samples, including the subcutis, were ex-vivo cultured and treated with compounds obtained from valerian extract, i.e. valerenic acid (VA) and pentanoic acid (AP), in order to evaluate their activity on the lipid metabolism.
# The responses of the treated tissues, in comparison to the untreated group, were evaluated after 6 days of culture, by isolating the subcutis of each skin sample and then estimating its normalized content in total lipids.
# Cylindrical pieces (7 mm in diameter) of full thickness human skin were excised from an abdominal skin sample paying attention to preserve the subcutis. These organ samples were seeded in 24-well plates at a density of 1 sample/well with 500 μl of culture medium, and cultured up to day 6. The samples submitted to experimental treatments received medium supplemented with VA at 0.5, 5 and 50 μM or PA at 0.2 and 2 μM. After the first day of culture, the samples were arranged in experimental groups including 4 samples each one. The control group received modified William E medium, while the samples submitted to experimental treatments received the same medium supplemented with the extracts. The culture medium was renewed every other day. After six days of organ culture (five of treatment), the subcutis of each skin sample was separated from the dermis and its total content of lipids and proteins was quantified. […] As a result, when lipogenesis is stimulated, an increase in the “total lipids/total proteins ratio”, hereinafter defined “normalized total lipids”, is expected, while the contrary occurs in the case of increased lipolysis.
# The analytical protocol adopted to detect values of “normalized total lipids” is described below: • each subcutis sample was homogenized in 1 ml of isopropyl alcohol; • the sample was centrifuged at 14,000 G for 5 minutes and then the supernatant (containing the extracted lipids) was collected; • the supernatant was diluted 10 fold with isopropyl alcohol; • the diluted lipid extract was analysed with a Direct Detect IR Spectrometer (Millipore), which provided the total lipid concentration of the supernatant (mg/ml); • the total lipids of the subcutis sample was quantified multiplying the supernatant lipid concentration (indention 4) by the preliminary dilution factor (indention 3) and then by the volume of isopropyl alcohol used for the lipid extraction (indention 1); • the residual pellet obtained from indention 2 was washed with 1 ml of isopropyl alcohol and, after another centrifugation this solvent was withdrawn; • the pellet was dried in a vacuum dry evaporator and then homogenized in 100 ul of proteolytic buffer (20 mM Tris HCI pH 7.5, 150 mM NaCl, 2 mM EDTA, 0.5% Triton X-100, 2 mM DTT, 1% protease inhibitor cocktail); • the extractive mixture was centrifuged at 14,000 G for 10 minutes and the supernatant was collected and analysed with a Direct Detect IR Spectrometer (Millipore), which provided the total protein concentration of the supernatant (mg/ml); • the obtained total protein concentration was multiplied by the extractive volume (indention 7) in order to quantify the total proteins of the subcutis sample; • the total lipids (indention 5) were divided by the total proteins (indention 9) in order to obtain the amount of lipids per mg of proteins relative to the processed subcutis sample.
# [2] = test system: human sebaceous glands (hSGs); assay: Sebum content in ex-vivo cultured human sebaceous glands (hSGs), lipids normalized to proteins; type: cell-based
# Description: The following examples are intended to show the modulation of sebum production exerted by the experimental preparations on human sebaceous glands (hSGs) microdissected and cultivated up to day 6. At the end of the culture time, the sebum is extracted and quantified from each experimental group of hSGs and then normalized by the proteins extracted from the residual hSG material (mg lipids/mg proteins). As a result, the biological activity of the tested compounds is inferred by comparing the lipids/proteins ratio of the treated glands with that of the control group. A detailed methodology is reported in EP14179936.1 (Cutech Srl) The adopted experimental model is based on the cultivation of ex-vivo hSGs at constant concentrations of valerian extracts or purified derivatives. This experimental condition is not reproducible in vivo since both topical and oral administration produce fluctuating concentrations, depending on the frequency and composition of the treatment. […] The control group was cultured in standard medium, whereas a 5 μM Capsaicin treatment was included in the experimental design as positive control. Capsaicin is an active component of chili peppers suitable to inhibit sebogenesis [Tóth et al., 2009, J. Invest. Derm. 129: 329-339]. The effect of the treatment was evaluated by assessing the amounts of normalized lipids obtained from the treated groups, i.e. the quantitive ratio beween sebum lipids and proteins extracted from each group of hSGs (mg of lipids/mg of proteins), with respect to the value obtained from the control group. The results were expressed in percentage values, assuming the normalized lipids obtained from the control group as reference value (100%).
# [3] = Table 1, scalp sample donor, 6 days culture, 5 μM
structure (smiles),measurement,setting,value
"CC1=C2[C@H](/C=C(\C)C(=O)O)CC[C@@H](C)[C@H]2CC1 [VA, valerenic acid]",response of lipid content in the skin subcutis versus control,[1]; 5.0 μM,−44.7%
same,"Total lipid content in skin subcutis samples, % ratio of the control group performance (Average)",[1]; 0.5 μM,63.9%
same,"Total lipid content in skin subcutis samples, % ratio of the control group performance (Average)",[1]; 5 μM,55.3%
same,"Total lipid content in skin subcutis samples, % ratio of the control group performance (Average)",[1]; 50.0 μM,59.0%
same,reduction of sebum content in the hSGs,"[2]; Examples 1 to 4 donor, 0.5 μM",26%
same,concentration range producing sebogenesis inhibition (very effective),[2]; Examples 5 to 7 donor,0.05 to 5 µM
same,reduction of sebogenesis (change versus control),"[2]; Examples 26 to 27, 0.5 μM",−29%
same,"Sebum content in hSGs, % ratio of the control group performance (Average)","[2]; Table 1, scalp sample donor, 6 days culture, 0.05 μM",98.9%
same,"Sebum content in hSGs, % ratio of the control group performance (Average)","[2]; Table 1, scalp sample donor, 6 days culture, 0.5 μM",74.2%
same,"Sebum content in hSGs, % ratio of the control group performance (Average)",[2]; [3],88.0%
same,"Sebum content in hSGs, % ratio of the control group performance (Average)","[2]; Table 1, scalp sample donor, 6 days culture, 50 μM",88.6%
same,"Sebum content in hSGs, % ratio of the control group performance (Average)","[2]; Table 2, another donor, 0.05 μM",85.6%
same,"Sebum content in hSGs, % ratio of the control group performance (Average)","[2]; Table 2, another donor, 0.5 μM",61.2%
same,"Sebum content in hSGs, % ratio of the control group performance (Average)","[2]; Table 2, another donor, 5 μM",88.5%
same,"Sebum content in hSGs, % ratio of the control group performance (Average)","[2]; Table 3, another donor, 0.05 μM",75.0%
same,"Sebum content in hSGs, % ratio of the control group performance (Average)","[2]; Table 3, another donor, 0.5 μM",89.0%
same,"Sebum content in hSGs, % ratio of the control group performance (Average)","[2]; Table 4, another donor, 0.05 μM",54.1%
same,"Sebum content in hSGs, % ratio of the control group performance (Average)","[2]; Table 4, another donor, 0.5 μM",63.9%
same,"Sebum content in hSGs, % ratio of the control group performance (Average)","[2]; Table 6, same donor, 0.05 μM",41.4%
same,"Sebum content in hSGs, % ratio of the control group performance (Average)","[2]; Table 6, same donor, 0.5 μM",50.4%
same,"Sebum content in hSGs, % ratio of the control group performance (Average)","[2]; Table 6, same donor, 5 μM",70.7%
same,"Sebum content in hSGs, % ratio of the control group performance (Average)","[2]; Table 8, 0.5 μM",71.4%
"CCCCC(=O)O [PA, pentanoic acid]","Total lipid content in skin subcutis samples, % ratio of the control group performance (Average)",[1]; 0.2 μM,82.6%
same,"Total lipid content in skin subcutis samples, % ratio of the control group performance (Average)",[1]; 2.0 μM,91.6%
same,reduction in total lipid content of skin subcutis,[1]; concentration not given,17.8%
same,"Sebum content in hSGs, % ratio of the control group performance (Average)","[2]; Table 5, 0.2 mM",57.3%
same,"Sebum content in hSGs, % ratio of the control group performance (Average)","[2]; Table 5, 2 mM",65.6%
same,"Sebum content in hSGs, % ratio of the control group performance (Average)","[2]; Table 6, same donor, 0.02 mM",62.5%
same,"Sebum content in hSGs, % ratio of the control group performance (Average)","[2]; Table 6, same donor, 0.2 mM",60.9%
same,"Sebum content in hSGs, % ratio of the control group performance (Average)","[2]; Table 6, same donor, 2.0 mM",75.4%
"COc1cc(CNC(=O)CCCC/C=C/C(C)C)ccc1O [Capsaicin, reference compound]","Total lipid content in skin subcutis samples, % ratio of the control group performance (Average)",[1]; 5 μM,73.6%
same,reduction of sebum content of the hSGs in comparison with the control group,"[2]; Examples 1 to 4 donor, positive control 5 μM",17%
same,reduction of hSGs sebum content in comparison with the control group,"[2]; Examples 5 to 7 donor, positive control 5 μM",10%
same,response of sebum production versus control,"[2]; Examples 22 to 25, positive control 5 μM",−17%
same,"Sebum content in hSGs, % ratio of the control group performance (Average)",[2]; [3],83.3%
same,"Sebum content in hSGs, % ratio of the control group performance (Average)","[2]; Table 2, another donor, 5 μM",90.2%
same,"Sebum content in hSGs, % ratio of the control group performance (Average)","[2]; Table 4, another donor, 5 μM",37.2%
same,"Sebum content in hSGs, % ratio of the control group performance (Average)","[2]; Table 5, 5 μM",45.6%
same,"Sebum content in hSGs, % ratio of the control group performance (Average)","[2]; Table 6, same donor, 5 μM",59.2%
same,"Sebum content in hSGs, % ratio of the control group performance (Average)","[2]; Table 7, 5 μM",83.0%
